We go through 33 compounds from US20230104936A1, “TRPML MODULATORS” (Casma Therapeutics, Inc., priority 2019, published 2023).

Broadly, the AC50 is the concentration at which the activity in the assay is half-maximal. Low values mean greater potency, high ones weaker potency.

For the experiment, the system named is TFEB. Briefly: TFEB nuclear translocation assay, HeLa wt cells. Type of experiment: cell-based. Conditions: Homo sapiens, HeLa, 2 h, 2 hrs compound treatment, Table 1 does not say HeLa wt or TRPML1 KO. The method in brief:
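Using 20× epifluorescence of fixed, anti-TFEB-stained HeLa wt cells treated 2 hrs with compound, nuclear versus perinuclear ring intensity was quantified over four fields per well, yielding AC50 values.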
`COCC1(C)CCN(c2ccccc2NS(=O)(=O)c2ccc3c(c2)OC2(CCC2)O3)CC1` [Compound A-685, N-{2-[4-(methoxymethyl)-4-methylpiperidin-1-yl]phenyl}spiro[1,3-benzodioxole-2,1′-cyclobutane]-6-sulfonamide]: the AC50 is at most 2000 nM.
Next, `COCC1(F)CCN(c2ccccc2NS(=O)(=O)c2ccc(S(=O)(=O)N(C)C)cc2)CC1` [Compound A-686, N4-[2-[4-fluoro-4-(methoxymethyl)piperidin-1-yl]phenyl}-N1,N1-dimethylbenzene-1,4-disulfonamide]: at most 2000 nM.
Next, `CC1(C)CC2(CCN(c3ccccc3NS(=O)(=O)c3cccc(C4CC4(F)F)c3)CC2)CO1` (stereo not drawn) [Compound A-687, 3-(2,2-difluorocyclopropyl)-N-(2-{3,3-dimethyl-2-oxa-8-azaspiro[4.5]decan-8-yl}phenyl)benzene-1-sulfonamide]: at most 2000 nM; `Cc1ccc(CS(=O)(=O)Nc2ccccc2N2CCC3(CC2)COC(C)(C)C3)c(F)c1` [Compound A-688, N-(2-{3,3-dimethyl-2-oxa-8-azaspiro[4.5]decan-8-yl}phenyl)-1-(2-fluoro-4-methylphenyl)methanesulfonamide]: 2010 to 8000 nM; `CC1(C)CC2(CCN(c3ccccc3NS(=O)(=O)c3ccn(C4CC4(F)F)n3)CC2)CO1` (stereo not drawn) [Compound A-689, 1-(2,2-difluorocyclopropyl)-N-(2-{3,3-dimethyl-2-oxa-8-azaspiro[4.5]decan-8-yl}phenyl)-1H-pyrazole-3-sulfonamide]: at least 10000 nM.
Take `CC1(C)CC2(CCN(c3ccccc3NS(=O)(=O)c3ccc4c(c3)CCC(C(F)F)O4)CC2)CO1` (stereo not drawn) [Compound A-690, 2-(difluoromethyl)-N-(2-{3,3-dimethyl-2-oxa-8-azaspiro[4.5]decan-8-yl}phenyl)-3,4-dihydro-2H-1-benzopyran-6-sulfonamide]: the AC50 lay within 2010 to 8000 nM.
The same measure for `CC1(C)CC2(CCN(c3ccccc3NS(=O)(=O)c3ccc(Br)cc3)CC2)CO1` [Compound A-691, 4-bromo-N-(2-{3,3-dimethyl-2-oxa-8-azaspiro[4.5]decan-8-yl}phenyl)benzene-1-sulfonamide]: 2010 to 8000 nM; for `Cc1ccc(S(=O)(=O)Nc2ccccc2N2CCC3(CC2)COC(C)(C)C3)cc1F` [Compound A-692, N-(2-{3,3-dimethyl-2-oxa-8-azaspiro[4.5]decan-8-yl}phenyl)-3-fluoro-4-methylbenzene-1-sulfonamide]: 2010 to 8000 nM.
The same measure for `CC1(C)CC2(CCN(c3ccccc3NS(=O)(=O)c3ccc(S(C)(=O)=O)cc3)CC2)CO1` [Compound A-693, N-(2-{3,3-dimethyl-2-oxa-8-azaspiro[4.5]decan-8-yl}phenyl)-4-methanesulfonylbenzene-1-sulfonamide]: 2010 to 8000 nM.
For the compound `COCC1(C)CCN(c2cc(F)ccc2NS(=O)(=O)c2ccc(S(=O)(=O)N(C)C)cc2)CC1` [Compound A-694, N4-{4-fluoro-2-[4-(methoxymethyl)-4-methylpiperidin-1-yl]phenyl}-N1,N1-dimethylbenzene-1,4-disulfonamide], the AC50 was at most 2000 nM.
Next, `COCC1(C)CCN(c2ccc(F)cc2NS(=O)(=O)c2ccc(S(=O)(=O)N(C)C)cc2)CC1` [Compound A-695, N4-{5-fluoro-2-[4-(methoxymethyl)-4-methylpiperidin-1-yl]phenyl}-N1,N1-dimethylbenzene-1,4-disulfonamide]: at most 2000 nM; `CN(C)S(=O)(=O)c1ccc(S(=O)(=O)Nc2ccccc2N2CCC(COC(F)(F)F)CC2)cc1` [Compound A-696, N1,N1-dimethyl-N4-(2-{4-[(trifluoromethoxy)methyl]piperidin-1-yl}phenyl)benzene-1,4-disulfonamide]: at most 2000 nM; `COCC1(C)CCN(c2ccccc2NS(=O)(=O)c2ccc(S(C)(=O)=O)cc2)CC1` [Compound A-697, 4-methanesulfonyl-N-{2-[4-(methoxymethyl)-4-methylpiperidin-1-yl]phenyl}benzene-1-sulfonamide]: 2010 to 8000 nM.
Regarding `CC1(C)CC2(CCN(c3ccccc3NS(=O)(=O)c3ccc4c(c3)COC4(C)C)CC2)CO1` [Compound A-700, N-(2-{3,3-dimethyl-2-oxa-8-azaspiro[4.5]decan-8-yl}phenyl)-1,1-dimethyl-1,3-dihydro-2-benzofuran-5-sulfonamide], the AC50 fell in the range of 2010 to 8000 nM.
In the case of `COCCS(=O)(=O)c1ccc(S(=O)(=O)Nc2ccccc2N2CCC(c3ccc(Cl)cc3F)CC2)cc1` [Compound A-701, N-{2-[4-(4-chloro-2-fluorophenyl)piperidin-1-yl]phenyl}-4-(2-methoxyethanesulfonyl)benzene-1-sulfonamide], the AC50 is at most 2000 nM.
Consider `CC1(C)CC2(CCN(c3c(F)cccc3NS(=O)(=O)Cc3ccccc3)CC2)CO1` [Compound A-702, N-(2-{3,3-dimethyl-2-oxa-8-azaspiro[4.5]decan-8-yl}-3-fluorophenyl)-1-phenylmethanesulfonamide], for which the AC50 was at most 2000 nM.
The compound `CCOC(=O)CC1(F)CCN(c2ccccc2NS(=O)(=O)c2ccc(S(=O)(=O)N(C)C)cc2)CC1` [Compound A-703, ethyl 2-(1-{2-[4-(dimethylsulfamoyl)benzenesulfonamido]phenyl}-4-fluoropiperidin-4-yl)acetate] had an AC50 of at most 2000 nM.
Next, `CC1(C)CC2(CCN(c3ccccc3NS(=O)(=O)c3ccc4c(c3)OC(C)(C)O4)CC2)CO1` [Compound A-704, N-(2-{3,3-dimethyl-2-oxa-8-azaspiro[4.5]decan-8-yl}phenyl)-2,2-dimethyl-2H-1,3-benzodioxole-5-sulfonamide]: at most 2000 nM; `COCC1(C)CCN(c2ccccc2NS(=O)(=O)c2ccc(C(C)(C)C(=O)OC)cc2)CC1` [Compound A-705, methyl 2-[4-({2-[4-(methoxymethyl)-4-methylpiperidin-1-yl]phenyl}sulfamoyl)phenyl]-2-methylpropanoate]: 8010 to 9990 nM.
Compound `COCC1(C)CCN(c2ccccc2NS(=O)(=O)c2ccc(C(C)C)cc2)CC1` [Compound A-706, N-{2-[4-(methoxymethyl)-4-methylpiperidin-1-yl]phenyl}-4-(propan-2-yl)benzene-1-sulfonamide] gave an AC50 of at most 2000 nM.
The same measure for `COCC1(C)CCN(c2ccccc2NS(=O)(=O)c2ccc3c(c2)CC(OC)C3)CC1` (stereo not drawn) [Compound A-707, 2-methoxy-N-{2-[4-(methoxymethyl)-4-methylpiperidin-1-yl]phenyl}-2,3-dihydro-1H-indene-5-sulfonamide]: 2010 to 8000 nM; for `COCC1(C)CCN(c2ccccc2NS(=O)(=O)c2ccc(C3CC3)s2)CC1` [Compound A-708, 5-cyclopropyl-N-{2-[4-(methoxymethyl)-4-methylpiperidin-1-yl]phenyl}thiophene-2-sulfonamide]: at most 2000 nM; for `COCC1(C)CCN(c2ccccc2NS(=O)(=O)Cc2ccc(C)cc2F)CC1` [Compound A-709, 1-(2-fluoro-4-methylphenyl)-N-{2-[4-(methoxymethyl)-4-methylpiperidin-1-yl]phenyl}methanesulfonamide]: 2010 to 8000 nM.
As for `COC(=O)C(C)(C)c1ccc(S(=O)(=O)Nc2ccccc2N2CCC3(CC2)COC(C)(C)C3)cc1` [Compound A-710, methyl 2-{4-[(2-{3,3-dimethyl-2-oxa-8-azaspiro[4.5]decan-8-yl}phenyl)sulfamoyl]phenyl}-2-methylpropanoate], the AC50 fell in the range of 8010 to 9990 nM.
Next, `Cc1ccc(CS(=O)(=O)Nc2ccccc2N2CCC3(CC2)COC(C)(C)C3)cc1` [Compound A-711, N-(2-{3,3-dimethyl-2-oxa-8-azaspiro[4.5]decan-8-yl}phenyl)-1-(4-methylphenyl)methanesulfonamide]: at most 2000 nM.
The same measure for `CC1(C)CC2(CCN(c3ccccc3NS(=O)(=O)Cc3ccc4c(c3)COCC4)CC2)CO1` [Compound A-712, 1-(3,4-dihydro-1H-2-benzopyran-7-yl)-N-(2-{3,3-dimethyl-2-oxa-8-azaspiro[4.5]decan-8-yl}phenyl)methanesulfonamide]: 2010 to 8000 nM; for `CC1(C)CC2(CCN(c3ccccc3NS(=O)(=O)c3ccc4c(c3)CCC4)CC2)CO1` [Compound A-713, N-(2-{3,3-dimethyl-2-oxa-8-azaspiro[4.5]decan-8-yl}phenyl)-2,3-dihydro-1H-indene-5-sulfonamide]: at most 2000 nM; for `CC1(C)CC2(CCN(c3ccccc3NS(=O)(=O)c3ccc4c(c3)COC4)CC2)CO1` [Compound A-714, N-(2-{3,3-dimethyl-2-oxa-8-azaspiro[4.5]decan-8-yl}phenyl)-1,3-dihydro-2-benzofuran-5-sulfonamide]: 8010 to 9990 nM.
Next, `CC1(C)CC2(CCN(c3ccccc3NS(=O)(=O)c3ccc4c(c3)COCC4)CC2)CO1` [Compound A-715, N-(2-{3,3-dimethyl-2-oxa-8-azaspiro[4.5]decan-8-yl}phenyl)-3,4-dihydro-1H-2-benzopyran-7-sulfonamide]: at most 2000 nM.
`CC1(C)CC2(CCN(c3ccccc3NS(=O)(=O)Cc3ccc(C(F)F)cc3)CC2)CO1` [Compound A-716, 1-[4-(difluoromethyl)phenyl]-N-(2-{3,3-dimethyl-2-oxa-8-azaspiro[4.5]decan-8-yl}phenyl)methanesulfonamide] gave a half-maximal activity concentration (AC50) of 2010 to 8000 nM.
Next, `CC1(C)CC2(CCN(c3ccccc3NS(=O)(=O)C3(c4ccccc4)CC3)CC2)CO1` [Compound A-717, N-(2-{3,3-dimethyl-2-oxa-8-azaspiro[4.5]decan-8-yl}phenyl)-1-phenylcyclopropane-1-sulfonamide]: 2010 to 8000 nM; `CC1(C)CC2(CCN(c3ccccc3NS(=O)(=O)c3ccc(C4CC4(F)F)cc3)CC2)CO1` (stereo not drawn) [Compound A-718, 4-(2,2-difluorocyclopropyl)-N-(2-{3,3-dimethyl-2-oxa-8-azaspiro[4.5]decan-8-yl}phenyl)benzene-1-sulfonamide]: at most 2000 nM.
Next, `CCOCC1(C)CCN(c2ccccc2NS(=O)(=O)c2ccc(S(=O)(=O)N(C)C)cc2)CC1` [Compound A-719, N4-{2-[4-(ethoxymethyl)-4-methylpiperidin-1-yl]phenyl}-N1,N1-dimethylbenzene-1,4-disulfonamide]: at most 2000 nM.
